These results are taken from patent publication US12257251B2, “Use of FAK inhibitor in preparation of drug for treating tumors having NRAS mutation” (INXMED (NANJING) CO., LTD., priority 2019, dated 2025).

For this experiment, the system named is HT-1080 cells carrying NRAS, CDKN2A and IDH1 gene mutations. Kind of experiment: Mouse model of human fibrosarcoma (cell line HT-1080), subcutaneous tumors: tumor growth. The note with it: for Median tumor volume: day 13; for TGI: day 1 to day 13, from median tumor volumes; for Tumor shrinkage [X/7]: number of animals of 7 with tumor shrinkage. Type of experiment: in vivo. As for the experimental part:
• 1. Materials and Method: • 1.1. Design of Research • Treatment began when the median tumor volume was between 70-130 mm^3. • 10 mice in the control group, and 7 mice in the treatment group. • Oral gavage once daily. • Control: 0.5% hydroxyethyl cellulose • BI 853520: 50 mg/kg, 25 mg/kg, 12.5 mg/kg, 6 mg/kg, • Tumor volume was measured 3 times a week and body weight was monitored daily. • Evaluation of treatment outcome was based on absolute volume of individual tumors. • Tolerability was assessed based on changes in body weight.
BI853520: synthesized according to the method in the patent WO2010058032. The dry powder was suspended in 0.5% hydroxyethyl cellulose to obtain the desired concentration for each assay. The pH of this formulation was 3.5.
HT-1080 cells: HT-1080 cells carrying NRAS, CDKN2A and IDH1 gene mutations were obtained from ATCC (CRL-121). Cells were grown in T175 tissue culture flasks with DMEM+Glutamax supplemented with 10% heat-inactivated fetal bovine serum as medium. Cells were cultured at 37° C. and 5% CO2 in humidified air.
Mice: Athymic female BomTac, approximately 6-week-old NMRI-Foxn1^nu mice were purchased from Taconic, Denmark. After arriving in the animal room, mice were acclimated to the new environment for at least 3 days before being used for assay. The animals were housed under standard conditions (temperature 21.5±1.5° C. and 55±10% humidity) with 5 mice in each group. A standard diet and autoclaved tap water were provided for ad libitum feeding. A Datamars® T-IS 8010 FDX-B transponder implanted subcutaneously in the neck region and a LabMax® II fixed reader were used to identify each mouse.
To establish subcutaneous tumors, HT-1080 cells were harvested by trypsinization, centrifuged, washed and suspended in ice-cold PBS+1×10^8 cells/ml. Then 100 μl of cell suspension containing 1×10^7 cells was injected subcutaneously into the right flank of nude mice (1 site per mouse). When tumors were established and reached a diameter of 5-8 mm (7 days after cell injection), mice were randomly assigned to the treatment group and the control group.
BI853520 was suspended in 0.5% hydroxyethyl cellulose, which was administered intragastrically through gavage needle every day, and the dosage was 10 mL/Kg.
Tumor diameters were measured with calipers three times a week (Monday, Wednesday, and Friday). The volume of each tumor [in mm^3] was calculated according to the equation, “tumor volume=length×diameter^2×π/6”. To monitor the side effects of the treatment, the mice were checked daily for abnormalities and their body weights were measured daily. Animals were sacrificed at the end of the study (approximately two weeks after the start of treatment). During the study, animals with tumor necrosis or tumors larger than 2000 mm^3 were sacrificed ahead of schedule for ethical reasons.
At the end of the assay on day 13, statistical evaluation of tumor volume and body weight parameters was performed. Absolute tumor volume and percent change in body weight (referenced to initial weight on day 1) were used. A nonparametric approach was used, and the number of observations, median, minimum and maximum values were calculated. For a quick overview of possible treatment effects, the median tumor volume for each treatment group T and the median tumor volume for the control group C were used to calculate the TGI from day 1 to day d: TGI=100×[(Cd−C1)−(Td−T1)]/(Cd−C1) • wherein, C1, T1=median tumor volume in control and treatment groups at the start of the assay (day 1). • Cd, Td=median tumor volume in control and treatment groups at the end of the assay (day 13).
Each dose of test compound was compared to the control group using a one-sided descending wilcoxon test, taking reduction in tumor volume as a treatment effect and weight loss as a side effect. […]

Regarding `COc1cc(C(=O)NC2CCN(C)CC2)c(F)cc1Nc1ncc(C(F)(F)F)c(Oc2cccc3c2C(=O)N(C)C3)n1` [BI853520], the Median tumor volume runs as follows: (6 mg/kg qd oral gavage) 322 mm^3; (12.5 mg/kg qd oral gavage) 149 mm^3; (25 mg/kg qd oral gavage) 15 mm^3. The TGI (6 mg/kg qd) turned out to be 70%, the TGI (12.5 mg/kg qd) is 94%, the TGI (25 mg/kg qd) came to 113% and the TGI (50 mg/kg qd) is recorded as 107%. Also, the “Tumor shrinkage [X/7]” value worked out at 1 X/7 (6 mg/kg qd), 2 X/7 (12.5 mg/kg qd) and 6 X/7 (25 mg/kg qd). In addition, the “Antitumor activity (in words)” value (all dose levels (6 to 50 mg/kg qd)) was “statistically significant antitumor activity”. Also, where the note is “all the treatment groups (6 to 50 mg/kg qd)”, the “Regression (in words)” value is “regression was observed”.
